According to PubChem BioAssay AID248 (DTP/NCI, 2004):
Several values for one entry are separate records, joined by “and”; a condition that tells them apart may be missing. Equal entries are not always repeated. Toxic doses and inconclusive results are not listed.

System: L1210 leukemia ip in BDF1 mice, survival T/C
Experiment: NCI In Vivo Anticancer Drug Screen. Data for tumor model L1210 Leukemia (intraperitoneal) in B6D2F1 (BDF1) mice
Conditions: endpoint: mean survival time, higher = longer survival
Summary of the method: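 Antitumor effect is assessed in tumor-bearing animals. Survival in the compound arm is compared with a vehicle-dosed control arm and expressed as their quotient.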

[1] = dose: 100.0 mg/kg/injection, schedule: Q04DX003 (ip), vehicle: saline
[2] = dose: 100.0 mg/kg/injection, schedule: Q04DX003 (ip), vehicle: Klucel (hydroxypropylcellulose) (HPC)
[3] = dose: 200.0 mg/kg/injection, schedule: Q04DX003 (ip), vehicle: Klucel (hydroxypropylcellulose) (HPC)
[4] = dose: 400.0 mg/kg/injection, schedule: Q04DX003 (ip), vehicle: Klucel (hydroxypropylcellulose) (HPC)
[5] = dose: 100.0 mg/kg/injection, schedule: Q04DX003 (ip), vehicle: saline with Tween-80
[6] = dose: 200.0 mg/kg/injection, schedule: Q04DX003 (ip), vehicle: saline with Tween-80
[7] = dose: 400.0 mg/kg/injection, schedule: Q04DX003 (ip), vehicle: saline with Tween-80
[8] = dose: 100.0 mg/kg/injection, schedule: Q01DX001 (ip), vehicle: Klucel (hydroxypropylcellulose) (HPC)
[9] = dose: 200.0 mg/kg/injection, schedule: Q01DX001 (ip), vehicle: Klucel (hydroxypropylcellulose) (HPC)
[10] = dose: 400.0 mg/kg/injection, schedule: Q01DX001 (ip), vehicle: Klucel (hydroxypropylcellulose) (HPC)

## C[CH2][Pb]([CH2]C)([CH2]C)[S]C(C)=O
dose: 1.5 mg/kg/injection, schedule: Q01DX009 (ip), vehicle: Klucel (hydroxypropylcellulose) (HPC)
  T/C: 89 % of control
dose: 3.0 mg/kg/injection, schedule: Q01DX009 (ip), vehicle: Klucel (hydroxypropylcellulose) (HPC)
  T/C: 101 % of control
dose: 12.5 mg/kg/injection, schedule: Q04DX002 (ip), vehicle: Klucel (hydroxypropylcellulose) (HPC)
  T/C: 102 % of control

## CC1CCC2N(C1)CC1C3(O)CC45OC6(O)C(O)CCC4(C)C6CCC5C3(O)CC(O)C1(O)C2(C)O (stereo not given)
dose: 75.0 mg/kg/injection, schedule: Q01DX001 (ip), vehicle: saline
  T/C: 104 % of control
dose: 150.0 mg/kg/injection, schedule: Q01DX001 (ip), vehicle: saline
  T/C: 105 % of control

## CCOC(=O)C(=O)c1cnc2c(OC)nn(O)cc1-2
dose: 12.5 mg/kg/injection, schedule: Q04DX002 (ip), vehicle: saline with Tween-80
  T/C: 102 % of control
dose: 25.0 mg/kg/injection, schedule: Q04DX002 (ip), vehicle: saline with Tween-80
  T/C: 109 % of control
dose: 50.0 mg/kg/injection, schedule: Q04DX002 (ip), vehicle: saline with Tween-80
  T/C: 102 % of control

## NC(N)=N/N=C/c1ccc(F)cc1
dose: 15.0 mg/kg/injection, schedule: Q01DX Z (ip), vehicle: carboxymethylcellulose (CMC)
  T/C: 95 % of control
dose: 30.0 mg/kg/injection, schedule: Q01DX Z (ip), vehicle: carboxymethylcellulose (CMC)
  T/C: 101 % of control
dose: 60.0 mg/kg/injection, schedule: Q01DX Z (ip), vehicle: carboxymethylcellulose (CMC)
  T/C: 100 % of control and 109 % of control
dose: 120.0 mg/kg/injection, schedule: Q01DX Z (ip), vehicle: carboxymethylcellulose (CMC)
  T/C: 97 % of control

## COc1cccc(NN)c1
dose: 50.0 mg/kg/injection, schedule: Q01DX009 (ip), vehicle: saline
  T/C: 100 % of control
[1]
  T/C: 101 % of control

## CS(=O)(=O)OCC(=O)NCCCNC(=O)COS(C)(=O)=O
dose: 17.5 mg/kg/injection, schedule: Q01DX013 (ip), vehicle: other
  T/C: 123 % of control
dose: 18.8 mg/kg/injection, schedule: Q01DX015 (ip), vehicle: saline
  T/C: 122 % of control
dose: 35.0 mg/kg/injection, schedule: Q01DX013 (ip), vehicle: other
  T/C: 121 % of control
dose: 54.0 mg/kg/injection, schedule: Q01DX009 (ip), vehicle: saline
  T/C: 166 % of control
dose: 75.0 mg/kg/injection, schedule: Q01DX015 (ip), vehicle: saline
  T/C: 155 % of control
dose: 80.0 mg/kg/injection, schedule: Q01DX009 (ip), vehicle: saline
  T/C: 175 % of control
dose: 120.0 mg/kg/injection, schedule: Q01DX009 (ip), vehicle: saline
  T/C: 202 % of control
dose: 150.0 mg/kg/injection, schedule: Q01DX015 (ip), vehicle: saline
  T/C: 150 % of control
dose: 180.0 mg/kg/injection, schedule: Q01DX009 (ip), vehicle: saline
  T/C: 164 % of control and 195 % of control
dose: 256.0 mg/kg/injection, schedule: Q01DX009 (ip), vehicle: saline
  T/C: 118 % of control

## CC(C)N(C(=O)Nc1cc([N+](=O)[O-])ccc1Cl)c1ccccc1
dose: 12.5 mg/kg/injection, schedule: Q01DX009 (ip), vehicle: Klucel (hydroxypropylcellulose) (HPC)
  T/C: 89 % of control
dose: 25.0 mg/kg/injection, schedule: Q01DX009 (ip), vehicle: Klucel (hydroxypropylcellulose) (HPC)
  T/C: 96 % of control
dose: 50.0 mg/kg/injection, schedule: Q01DX009 (ip), vehicle: Klucel (hydroxypropylcellulose) (HPC)
  T/C: 98 % of control

## O=C1c2cccc(NCCO)c2C(=O)c2c(NCCO)cccc21
[2]
  T/C: 94 % of control
[3]
  T/C: 102 % of control
[4]
  T/C: 94 % of control

## CCCCCCC(=O)C(O)C(O)C(=O)CCCCCCCC(=O)O (stereo not given)
dose: 100.0 mg/kg/injection, schedule: Q04DX002 (ip), vehicle: other
  T/C: 91 % of control
dose: 200.0 mg/kg/injection, schedule: Q04DX002 (ip), vehicle: other
  T/C: 98 % of control
dose: 400.0 mg/kg/injection, schedule: Q04DX002 (ip), vehicle: other
  T/C: 102 % of control

## COC(=O)C1=C(C)NC(=O)NC1c1ccccc1 (stereo not given)
[5]
  T/C: 105 % of control
[6]
  T/C: 97 % of control
[7]
  T/C: 100 % of control

## [O-]/[N+](=C\C=C\c1ccccc1)c1ccccc1
dose: 100.0 mg/kg/injection, schedule: Q01DX009 (ip), vehicle: Klucel (hydroxypropylcellulose) (HPC)
  T/C: 100 % of control
[2]
  T/C: 103 % of control
dose: 200.0 mg/kg/injection, schedule: Q01DX009 (ip), vehicle: Klucel (hydroxypropylcellulose) (HPC)
  T/C: 90 % of control
[3]
  T/C: 95 % of control
dose: 400.0 mg/kg/injection, schedule: Q01DX009 (ip), vehicle: Klucel (hydroxypropylcellulose) (HPC)
  T/C: 89 % of control
[4]
  T/C: 86 % of control

## CS(=O)(=O)OC1CCCCC1Sc1ccc(Br)cc1 (stereo not given)
[8]
  T/C: 103 % of control
[2]
  T/C: 101 % of control
[9]
  T/C: 101 % of control
[3]
  T/C: 101 % of control
[10]
  T/C: 101 % of control
[4]
  T/C: 106 % of control

## c1ccc(-c2nc3ccccn3n2)cc1
[8]
  T/C: 101 % of control
[9]
  T/C: 95 % of control
[10]
  T/C: 103 % of control

## N#CC(C#N)c1c(F)c(F)c(C(F)(F)F)c(F)c1F
dose: 10.0 mg/kg/injection, schedule: Q04DX003 (ip), vehicle: Klucel (hydroxypropylcellulose) (HPC)
  T/C: 103 % of control
dose: 20.0 mg/kg/injection, schedule: Q01DX001 (ip), vehicle: Klucel (hydroxypropylcellulose) (HPC)
  T/C: 97 % of control
dose: 20.0 mg/kg/injection, schedule: Q04DX003 (ip), vehicle: Klucel (hydroxypropylcellulose) (HPC)
  T/C: 98 % of control
dose: 40.0 mg/kg/injection, schedule: Q01DX001 (ip), vehicle: Klucel (hydroxypropylcellulose) (HPC)
  T/C: 101 % of control
dose: 40.0 mg/kg/injection, schedule: Q04DX003 (ip), vehicle: Klucel (hydroxypropylcellulose) (HPC)
  T/C: 95 % of control

## C1N2CN3CN1CN(C2)C3 (tested in a mixture with another compound)
[5]
  T/C: 107 % of control
[6]
  T/C: 103 % of control
[7]
  T/C: 102 % of control

## CC(C)c1ccc(/C=C2\C=Nc3ccccc32)cc1
dose: 100.0 mg/kg/injection, schedule: Q04DX002 (ip), vehicle: gum acacia
  T/C: 95 % of control
dose: 200.0 mg/kg/injection, schedule: Q04DX002 (ip), vehicle: gum acacia
  T/C: 92 % of control
dose: 400.0 mg/kg/injection, schedule: Q04DX002 (ip), vehicle: gum acacia
  T/C: 95 % of control

## CCCCN=Cc1ccccc1
dose: 100.0 mg/kg/injection, schedule: Q01DX009 (ip), vehicle: saline with Tween-80
  T/C: 114 % of control
[5]
  T/C: 96 % of control
dose: 200.0 mg/kg/injection, schedule: Q01DX009 (ip), vehicle: saline with Tween-80
  T/C: 90 % of control
[6]
  T/C: 87 % of control
[7]
  T/C: 103 % of control

## CCCC(C)OS(=O)(=O)c1ccc(Br)cc1 (stereo not given)
dose: 100.0 mg/kg/injection, schedule: Q01DX009 (ip), vehicle: saline
  T/C: 91 % of control
dose: 100.0 mg/kg/injection, schedule: Q04DX002 (ip), vehicle: saline with Tween-80
  T/C: 97 % of control
dose: 200.0 mg/kg/injection, schedule: Q01DX009 (ip), vehicle: saline
  T/C: 96 % of control
dose: 200.0 mg/kg/injection, schedule: Q04DX002 (ip), vehicle: saline with Tween-80
  T/C: 100 % of control
dose: 400.0 mg/kg/injection, schedule: Q01DX009 (ip), vehicle: saline
  T/C: 86 % of control
dose: 400.0 mg/kg/injection, schedule: Q04DX002 (ip), vehicle: saline with Tween-80
  T/C: 97 % of control

## C=CCN(CC=C)C(=S)Nc1cccc(Cl)c1
dose: 100.0 mg/kg/injection, schedule: Q01DX001 (ip), vehicle: other
  T/C: 103 % of control
dose: 200.0 mg/kg/injection, schedule: Q01DX001 (ip), vehicle: other
  T/C: 100 % of control
dose: 400.0 mg/kg/injection, schedule: Q01DX001 (ip), vehicle: other
  T/C: 100 % of control

## CC(=O)OC1C(COS(=O)(=O)c2ccc(C)cc2)OCOC(COS(=O)(=O)c2ccc(C)cc2)C1OC(C)=O (stereo not given)
[8]
  T/C: 100 % of control
[9]
  T/C: 93 % of control
[10]
  T/C: 90 % of control

## CCOC(=O)c1c(O)[nH]c(=O)c(Br)c1C
dose: 100.0 mg/kg/injection, schedule: Q01DX001 (ip), vehicle: saline
  T/C: 109 % of control
[1]
  T/C: 89 % of control
dose: 200.0 mg/kg/injection, schedule: Q01DX001 (ip), vehicle: saline
  T/C: 120 % of control
dose: 200.0 mg/kg/injection, schedule: Q04DX003 (ip), vehicle: saline
  T/C: 89 % of control
dose: 400.0 mg/kg/injection, schedule: Q01DX001 (ip), vehicle: saline
  T/C: 117 % of control
dose: 400.0 mg/kg/injection, schedule: Q04DX003 (ip), vehicle: saline
  T/C: 90 % of control
